Source: publication PMC10877733, “Discovery and Characterization of VU0542270, the First Selective Inhibitor of Vascular Kir6.1/SUR2B KATP Channels” (Molecular Pharmacology, 2024)

Assays:
[1] = Intrinsic clearance in liver microsomes, rat; type: in vitro ADME
Description: The in vitro intrinsic clearance (CLint) of VU0542270 was investigated in commercially obtained hepatic microsomes from rat, mouse, and human donors using the substrate depletion (i.e., loss-of-parent versus time, or t1/2 method) approach with analyte detection via LC-MS/MS. For each species, mean per cent parent remaining values at each time point were calculated from replicates raw data (analyte:IS peak area ratios) and used to determine in vitro t1/2 and CLint.
Experiments were carried out using a robot-assisted liquid handling system (TECAN model Evo 200). VU0542270 was incubated (1 µM final concentration) in buffer (100 mM potassium phosphate, pH 7.4, with 3 mM MgCl2) containing hepatic microsomes (0.5 mg/mL final concentration) from multiple species, discretely, at 37°C under constant orbital shaking. After 5 minutes (preincubation), reactions were initiated by the addition of NADPH (1 mM final concentration). At selected time intervals (0, 3, 7, 15, 25, and 45 minutes) post addition of NADPH, aliquots (50 µL) were taken and placed into a 96-shallow-well plate containing ice-cold acetonitrile (150 µL) with carbamazepine (IS, 50 nM). The plates were then centrifuged (3000 rcf at 4°C) for 10 minutes. […]
Predicted hepatic clearance (CLhep) was calculated using the following equation: [drawing 4] […]

[2] = test system: Kir6.1- or Kir6.2-containing channels in complex with either SUR2A or SUR2B; assay: Thallium flux, Kir6.1 or Kir6.2 co-expressed with SUR2A or SUR2B in transfected HEK-293 cells; type: cell-based; details: 3 µM, Fig. 4D
Excerpt: The pcDNA3.1-SUR2B plasmid was generously provided by Dr. Colin Nichols (Washington University). The pcDNA5/TO-Kir6.1 plasmid was synthesized by GenScript. Stably transfected tetracycline-regulated expression human embryonic kidney-293 (T-Rex-HEK293) cells expressing both plasmids were generated by cotransfecting cells with Lipofectamine LTX followed by antibiotic selection and clonal selection using the thallium flux assay described below. Monoclonal lines expressing robust pinacidil-activated thallium flux were selected for high KATP channel activity. T-Rex-HEK293 cells expressing Kir6.2/SUR1 were created as described previously ([Raphemot et al., 2014]). The cell culture media contained Dulbecco’s modified Eagle’s medium (Gibco, 11965-092) supplied with heat-inactivated FBS (bio-techne, Minneapolis, MN S11150H,10%), Blasticidine HCl (Gibco, A11139-03, 10 ug/mL), Penicillin-Streptomycin (Gibco, 15140-122, 2 mM), G418 Sulfate (CORNING, Corning, NY, 30-234-CR, 1 mg/mL), and Hygromycin B (Invitrogen, Carlsbad, CA, 10687-010, 250 ug/mL). […]
Quantitative thallium flux assays of Kir6.1/SUR2B activity were performed essentially as described previously for Kir6.2/SUR1 ([Raphemot et al., 2014]; [Kharade et al., 2019]). […] Dye-loaded cells were washed with assay buffer and transferred to a Panoptic Kinetic Imaging Plate Reader (Wavefront Bioscience, Franklin, TN). […]

[3] = Plasma binding by equilibrium dialysis, human; type: in vitro ADME; details: equilibrium dialysis 6 hours 37°C, read-out: Fu, plasma (human)
Description: Determination of VU0542270 fraction unbound (fu) in plasma from mouse, rat, and human was conducted in vitro via equilibrium dialysis using high-throughput dialysis (HTD) membrane plates. Dialysis membranes (four paired strips per HTD assay) were hydrated as described by the manufacturer and inserted into the HTD plate, which was assembled and prepared for sample addition by the dispensing of blank buffer [Delbecco’s phosphate buffered saline (DPBS), 100 µL/well] into the “top half” of each membrane-split well. VU0542270 was diluted into plasma from each species (5 µM final concentration), which was aliquoted in triplicate to the “bottom half” of the prepared HTD plate wells. The HTD plate was sealed and incubated for 6 hours at 37°C. Following incubation, each well (both top and bottom halves) was transferred (20 µL) to the corresponding well of a 96-shallow-well (V-bottom) plate. […]
fu was calculated as (analyte to IS mass spectrometry (MS) peak area ratio from Trans-buffer side)/(analyte to IS MS peak area ratio from Cis-plasma side). Mean values for each species were calculated from three replicates.

Cc1nc(-c2cccs2)sc1CNC(=O)Nc1cccs1 [VU0542270]
Predicted CLhep,u (rat) ([1]; corrected to plasma unbound fraction): 6.0 mL/min per kg
Predicted CLhep (rat) ([1]; from microsomal CLint): 63 mL/min per kg
inhibition of Kir6.1- or Kir6.2-containing channels with SUR2A or SUR2B [2]: inhibits
fraction unbound at 6 h, 5 µM [3]: 0.01
